Laboratory results: US6696495B2, “Treatment of disorders secondary to organic impairments” (Snowden Pharmaceuticals, LLC, priority 1998, dated 2004)

Experiments:
[1] = system: Dementia, Alzheimer's-Type; assay: Case history 24; type: in vivo, human; conditions: before sibutramine
Description: 24. The Symptoms Due to Dementia, Alzheimer's-Type
person one was diagnosed with Dementia. The symptoms they suffered from included memory loss and severe confusion. They tried a variety of treatments to relieve their symptoms including choldine esterase inhibitors, antidepressants, Ritilin, and aterol. […] They were then tested off of sibutramine. […] They began to suffer from a lowered I.Q. and their memory deteriorated.

[2] = system: Huntington's Disease; assay: Case history 12, Sibutramine Patient No. 113; type: in vivo, human; conditions: after worsening of symptoms
[3] = system: Tourette's Disease Tics, Violence, and ADHD; assay: Case history 8, Sibutramine Patient No. 47; type: in vivo, human; conditions: over six years before sibutramine
[4] = system: Sexual Function, ADD, and Rage Outbursts; assay: Case history 3, Sibutramine Patient No. 100; type: in vivo, human; conditions: mood swings, cognitive, anger, sexual problems; before sibutramine
[5] = system: Non-Tourette's tics, obsessive-compulsive rituals, and attention deficit hyperactive disorder (ADHD); conditions: before sibutramine
[6] = system: Tourette's Tics, Asocial Behavior, and Relief of Hyposexuality; conditions: before sibutramine
[7] = system: Sexual Gender Choice Change; assay: Case history 7, Sibutramine Patient No. 99; type: in vivo, human; conditions: depression; impulsive behaviors, mood swings, epileptic symptoms
[8] = system: Severe Atypical Psychosis; assay: Case history 1, Sibutramine Patient No. 97; type: in vivo, human; conditions: treatments before sibutramine
[9] = system: Asocial Behavior, Violence, and Hyposexuality; assay: Case history 10, Sibutramine Patient No. 54; type: in vivo, human; conditions: before sibutramine
[10] = system: Severe Post-Traumatic Stress Reaction; conditions: for response of PTSD symptoms to other medications: before sibutramine
Description: Finally, this patient was taken off of fluoxetine 20 mg when sibutramine treatment was initiated.

[11] = system: Sexual Obsessive-Compulsive Behavior, ADD and Executive Function; assay: Case history 6, Sibutramine Patient No. 77; type: in vivo, human; conditions: before sibutramine
[12] = system: ADHD Refractory to Other Treatments; type: in vivo, human; conditions: for response of ADHD to other medications: four years before sibutramine; for side effects of other medications: human, in vivo
Description: 16. ADHD Refractory to Other Treatments (Problem No. 6) Sibutramine Patient No. 16
The amphetamines made their nervous, jittery, and unable to sleep. […] They were started on sibutramine 10 mg every morning by mouth. […] After the first month, their dose was changed to 5 mg three times daily due to a five hour duration of effects.

[13] = system: frontal lobe executive function, ADHD, and hyposexuality; conditions: human, in vivo
[14] = system: Sexual Function and ADD; assay: Case history 4, Sibutramine Patient No. 109; type: in vivo, human; conditions: before sibutramine
[15] = system: Torticollis, Lingual Dystonia and Dyskinesia; assay: Case history 23; type: in vivo, human; conditions: in vivo

COC(=O)C(c1ccccc1)C1CCCCN1 (stereo not shown) [Ritilin]
response to other treatments [1]: None of these treatments had any effect on their symptoms

NC(=O)N1c2ccccc2C=Cc2ccccc21 [carbamazepine]
response to previous medications [2]: no longer responded | response to other medications [3]: without any good results | response to other medications [4]: helped with their mood swings but not with their anger, sexual, or cognitive problems | response to other medications [5]: unsuccessful | response to other medications [6]: without success | response to other medications [7]: impulsive behaviors, mood swings, and epileptic symptoms were relieved | response of psychosis symptoms to other medications [8]: did not control their symptoms | response to other medications [9]: without any changes in their speech or mode of communication | response of PTSD symptoms to other medications [10]: unsuccessful

C[C@H](N)Cc1ccccc1 [dextroamphetamine]
response to other medications [4]: unsuccessful | response to other medications [11]: unsuccessful | response to other medications [6]: without success | response of ADHD to other medications [12]: without success | response of PTSD symptoms to other medications [10]: unsuccessful

CNCCC(Oc1ccc(C(F)(F)F)cc1)c1ccccc1 (stereo not shown) [fluoxetine]
response to previous medications [2]: no longer responded | response to other medications [13]: unsuccessful | response to other medications [7]: refractory | response of psychosis symptoms to other medications [8]: without success | depression ([10]; human, in vivo): the depression and PTSD were relieved

NCC1(CC(=O)O)CCCCC1 [gabapentin]
response to previous medications [2]: no longer responded | response to other medications [3]: without any good results | response to other medications [6]: without success | response to other medications [7]: refractory

COC(=O)C(c1ccccc1)C1CCCCN1 (stereo not shown) [methylphenidate]
response to other medications [3]: without any good results | response to other medications [4]: unsuccessful | response to other medications [11]: unsuccessful | response to other medications [13]: Initially their attention problems responded | response to other medications [5]: initially treated successfully | response to other medications [6]: without success | response to other medications [7]: refractory | response to other medications [9]: without any changes in their speech or mode of communication | response of ADHD to other medications [12]: without success | side effects of other medications [12]: made their sleepy | response of PTSD symptoms to other medications [10]: unsuccessful

CCCC(CCC)C(=O)O [valproic acid]
response to other medications [14]: helped their anger attacks but interfered with their concentration considerably and did not help their sexual problems | response to other medications [3]: without any good results | response to other medications [4]: not helpful | response to other medications [11]: unsuccessful | response to other medications [6]: without success | response of PTSD symptoms to other medications [10]: unsuccessful

botulinum toxin
response to other treatment [15]: only temporarily relieved their symptoms

magnesium pemoline
response to other medications [14]: unsuccessful | response to other medications [3]: without any good results | response to other medications [4]: not helpful | response to other medications [11]: unsuccessful | response to other medications [6]: without success | response of ADHD to other medications [12]: without success | side effects of other medications [12]: made their sleepy
